Consider 13 compounds from US7304050B2, “Antibacterial agents” (Pfizer Inc., priority 2003, dated 2007).

Test [1] has as its system H. influenzae HI3542. Nature of the test: Antibacterial assay (Test A), microtitration MIC, Gram negative. The conditions noted are these: Gram Negative Bacteria, strain HI3542; for MIC: Haemophilus influenzae, read-out: Minimum Inhibitory Concentrations H. influenzae HI3542. Type of test: cell-based. Here is the method:
(§1) The compounds of the present invention were tested against an assortment of Gram-negative and Gram-positive organisms using standard microtitration techniques (Cohen et. al., Antimicrob., 1985;28:766;Heifetz, et. al., Antimicrob., 1974;6: 124).

For test [2], the system named is M. catarrhalis BC3534. The test is described as above. Type of test: cell-based. The conditions noted are these: Gram Negative Bacteria, strain BC3534; for MIC: Moraxella catarrhalis, read-out: Minimum Inhibitory Concentrations M. catarrhalis BC3534. Here is the method:
as §1

Test [3] deals with E. coli Tol C. The test is described as above. Type of test: cell-based. Particulars: for MIC: Escherichia coli, read-out: Minimum Inhibitory Concentrations E. coli Tol C. The protocol: as §1
The test system of test [4] is S pyogenes C203. Nature of the test: Antibacterial assay (Test A), microtitration MIC, Gram positive. Type of test: cell-based. The conditions noted are these: Gram Positive Bacteria, strain C203; for MIC: read-out: Minimum Inhibitory Concentrations S pyogenes C203. Here is the method:
as §1

In test [5] the test system is S. aureus UC-76. The description is as above. Type of test: cell-based. The conditions noted are these: Gram Positive Bacteria, strain UC-76; for MIC: Staphylococcus aureus, UC76, read-out: Minimum Inhibitory Concentrations S. aureus UC-76. Here is the method:
as §1

Test [6] deals with E. faecalis MGH-2. The description is as above. Type of test: cell-based. Particulars: Gram Positive Bacteria, strain MGH-2; for MIC: Enterococcus faecalis, MGH2, read-out: Minimum Inhibitory Concentrations E. faecalis MGH-2. Here is the method:
as §1

In test [7] the test system is E. coli transcription and translation (TnT). Type of test: biochemical.

In brackets after ≈: the same amount, converted by molar mass.

For `COc1c(N2CCCc3cc(N4C[C@H](CNC(C)=O)OC4=O)ccc3C2)c(F)c(C)c2c(=O)c(C(=O)O)cn(C3CC3)c12` (stereo in doubt) [Example 2, 7-{7-[5-(Acetylamino-methyl)-2-oxo-oxazolidin-3-yl]-1,3,4,5-tetrahydro-benzo[c]azepin-2-yl}-1-cyclopropyl-6-fluoro-8-methoxy-5-methyl-4-oxo-1,4-dihydro-quinoline-3-carboxylic Acid], the MIC in test [1] was 0.06 µg/mL (≈ 0.101 µM); in test [2] it was 8 µg/mL (≈ 13.5 µM); in test [3], 16 µg/mL (≈ 27 µM); in test [4] it was 8 µg/mL (≈ 13.5 µM); in test [5], 0.06 µg/mL (≈ 0.101 µM); in test [6], 8 µg/mL (≈ 13.5 µM). In test [7], the “Inhibitory concentration in E. coli cell-free transcription/translation (TnT) assay” value worked out at 9.6 µg/mL.
In the case of `CC(=O)NC[C@H]1CN(c2ccc3c(c2)CCN(c2c(F)cc4c(=O)c(C(=O)O)cn(C5CC5)c4c2Cl)CC3)C(=O)O1` [Example 10, 7-{7-[5-(Acetylamino-methyl)-2-oxo-oxazolidin-3-yl]-1,2,4,5-tetrahydro-benzo[d]azepin-3-yl}-8-chloro-1-cyclopropyl-6-fluoro-4-oxo-1,4-dihydro-quinoline-3-carboxylic Acid], the MIC in test [1] is 0.06 µg/mL (≈ 0.103 µM); in test [2], 0.13 µg/mL (≈ 0.223 µM); in test [3], 1 µg/mL (≈ 1.72 µM); in test [4], 0.25 µg/mL (≈ 0.429 µM); in test [5], 0.06 µg/mL (≈ 0.103 µM); in test [6], 0.25 µg/mL (≈ 0.429 µM). Further, in test [7], the “Inhibitory concentration in E. coli cell-free transcription/translation (TnT) assay” value was 5.4 µg/mL.
With `CC(=O)NC[C@H]1CN(c2ccc3c(c2)CCN(c2nc4c(cc2F)c(=O)c(C(=O)O)cn4-c2ccc(F)cc2F)CC3)C(=O)O1` [Example 8, 7-{7-[5-(Acetylamino-methyl)-2-oxo-oxazolidin-3-yl]-1,2,4,5-tetrahydro-benzo[d]azepin-3-yl}-1-(2,4-difluoro-phenyl)-6-fluoro-4-oxo-1,4-dihydro-[1,8]naphthyridine-3-carboxylic Acid], the MIC in test [1] came to 0.06 µg/mL (≈ 0.0965 µM); in test [2], 2 µg/mL (≈ 3.22 µM); in test [3], 2 µg/mL (≈ 3.22 µM); in test [4] it was 8 µg/mL (≈ 12.9 µM); in test [5], 0.5 µg/mL (≈ 0.804 µM); in test [6], 16 µg/mL (≈ 25.7 µM). Moreover, the “Inhibitory concentration in E. coli cell-free transcription/translation (TnT) assay” value in test [7] stood at 23.0 µg/mL.
As to `CC(=O)NC[C@H]1CN(c2ccc3c(c2)CCCN(c2c(F)cc4c(=O)c(C(=O)O)cn5c4c2OCC5C)C3)C(=O)O1` (stereo partly drawn) [Example 5, 9-{7-[5-(Acetylamino-methyl)-2-oxo-oxazolidin-3-yl]-1,3,4,5-tetrahydro-benzo[c]azepin-2-yl}-8-fluoro-3-methyl-6-oxo-2,3-dihydro-6 H-1-oxa-3a-aza-phenalene-5-carboxylic Acid], the MIC in test [1] was determined as 0.06 µg/mL (≈ 0.106 µM); in test [2], 2 µg/mL (≈ 3.54 µM); in test [3], 8 µg/mL (≈ 14.2 µM); in test [4] it was 8 µg/mL (≈ 14.2 µM); in test [5], 1 µg/mL (≈ 1.77 µM); in test [6], 32 µg/mL (≈ 56.7 µM). For the same compound, in test [7], the “Inhibitory concentration in E. coli cell-free transcription/translation (TnT) assay” value worked out at 22.4 µg/mL.
As for `CC(=O)NC[C@H]1CN(c2ccc3c(c2)CCCN(c2cc4c(c(C)c2F)c(=O)c(C(=O)O)cn4C2CC2)C3)C(=O)O1` [Example 3, 7-{7-[5-(Acetylamino-methyl)-2-oxo-oxazolidin-3-yl]-1,3,4,5-tetrahydro-benzo[c]azepin-2-yl}-1-cyclopropyl-6-fluoro-5-methyl-4-oxo-1,4-dihydro-quinoline-3-carboxylic Acid], the MIC turned out to be 0.06 µg/mL (≈ 0.107 µM) in test [1]; 16 µg/mL (≈ 28.4 µM) in test [2]; 32 µg/mL (≈ 56.9 µM) in test [3]; 16 µg/mL (≈ 28.4 µM) in test [4]; 1 µg/mL (≈ 1.78 µM) in test [5]; 32 µg/mL (≈ 56.9 µM) in test [6].
Consider `CC(=O)NC[C@H]1CN(c2ccc3c(c2)CCN(c2c(F)cc4c(=O)c(C(=O)O)cn(C5CC5)c4c2F)CC3)C(=O)O1` [Example 12, 7-{7-[5-(Acetylamino-methyl)-2-oxo-oxazolidin-3-yl]-1,2,4,5-tetrahydro-benzo[d]azepin-3-yl}-1-cyclopropyl-6,8-difluoro-4-oxo-1,4-dihydro-quinoline-3-carboxylic Acid], for which the MIC in test [1] was 0.06 µg/mL (≈ 0.106 µM); in test [2], 0.25 µg/mL (≈ 0.441 µM); in test [3] it was 4 µg/mL (≈ 7.06 µM); in test [4], 1 µg/mL (≈ 1.77 µM); in test [5] it was 0.25 µg/mL (≈ 0.441 µM); in test [6] it was 1 µg/mL (≈ 1.77 µM). In addition, the “Inhibitory concentration in E. coli cell-free transcription/translation (TnT) assay” value in test [7] was 9.3 µg/mL.
Take `CC(=O)NC[C@H]1CN(c2ccc3c(c2)CCCN(c2cc4c(cc2F)c(=O)c(C(=O)O)cn4C2CC2)C3)C(=O)O1` [Example 16, 7-{7-[5-(Acetylamino-methyl)-2-oxo-oxazolidin-3-yl]-1,3,4,5-tetrahydro-benzo[c]azepin-2-yl}-1-cyclopropyl-6-fluoro-4-oxo-1,4-dihydro-quinolne-3-carboxylic Acid]: the MIC in test [1] was 0.125 µg/mL (≈ 0.228 µM); in test [2] it was 16 µg/mL (≈ 29.2 µM); in test [3], 64 µg/mL (≈ 117 µM); in test [4], 4 µg/mL (≈ 7.29 µM); in test [5], 8 µg/mL (≈ 14.6 µM); in test [6], 32 µg/mL (≈ 58.3 µM). Further, the “Inhibitory concentration in E. coli cell-free transcription/translation (TnT) assay” value in test [7] is 10 µg/mL.
Take `CC(=O)NC[C@H]1CN(c2ccc3c(c2)CCCN(c2nc4c(cc2F)c(=O)c(C(=O)O)cn4C2CC2)C3)C(=O)O1` (stereo in doubt) [Example 15, 7-{7-[5-(Acetylamino-methyl)-2-oxo-oxazolidin-3-yl]-1,3,4,5-tetrahydro-benzo[c]azepin-2-yl}-1-cyclopropyl-6-fluoro-4-oxo-1,4-dihydro-[1,8]naphthyridine-3-carboxylic Acid]: the MIC in test [1] came to 0.06 µg/mL (≈ 0.109 µM); in test [2] it was 4 µg/mL (≈ 7.28 µM); in test [3] it was 4 µg/mL (≈ 7.28 µM); in test [4], 4 µg/mL (≈ 7.28 µM); in test [5], 2 µg/mL (≈ 3.64 µM); in test [6], 4 µg/mL (≈ 7.28 µM).
Regarding `COc1c(N2CCc3ccc(N4C[C@H](CNC(C)=O)OC4=O)cc3CC2)c(F)cc2c(=O)c(C(=O)O)cn(C3CC3)c12` [Example 7, 7-{7-[5-(Acetylamino-methyl)-2-oxo-oxazolidin-3-yl]-1,2,4,5-tetrahydro-benzo[d]azepin-3-yl}-1-cyclopropyl-6-fluoro-8-methoxy-4-oxo-1,4-dihydro-quinoline-3-carboxylic Acid], the MIC in test [1] is 0.06 µg/mL (≈ 0.104 µM); in test [2], 0.25 µg/mL (≈ 0.432 µM); in test [3], 2 µg/mL (≈ 3.46 µM); in test [4], 1 µg/mL (≈ 1.73 µM); in test [5], 0.06 µg/mL (≈ 0.104 µM); in test [6] it was 0.5 µg/mL (≈ 0.864 µM). For the same compound, the “Inhibitory concentration in E. coli cell-free transcription/translation (TnT) assay” value in test [7] stood at 11.8 µg/mL.
Turning to `CC(=O)NC[C@H]1CN(c2ccc3c(c2)CCCN(c2c(F)cc4c(=O)c(C(=O)O)cn(C5CC5)c4c2F)C3)C(=O)O1` (stereo in doubt) [Example 13, 7-{7-[5-(Acetylamino-methyl)-2-oxo-oxazolidin-3-yl]-1,3,4,5-tetrahydro-benzo[c]azepin-2-yl}-1-cyclopropyl-6,8-difluoro-4-oxo-1,4-dihydro-quinoline-3-carboxylic Acid], the MIC in test [1] came to 0.06 µg/mL (≈ 0.106 µM); in test [2], 1 µg/mL (≈ 1.77 µM); in test [3] it was 4 µg/mL (≈ 7.06 µM); in test [4] it was 2 µg/mL (≈ 3.53 µM); in test [5] it was 0.5 µg/mL (≈ 0.883 µM); in test [6] it was 8 µg/mL (≈ 14.1 µM). The “Inhibitory concentration in E. coli cell-free transcription/translation (TnT) assay” value in test [7] worked out at 0.6 µg/mL.
For “7-{7-[5-(Acetylamino-methyl)-2-oxo-oxazolidin-3-yl]-1,3,4,5-tetrahydro-benzo[c]azepin-2-yl}-1-cyclopropyl-8-difluoromethoxy-6-fluoro-4-oxo-1,4-dihydro-[1,8]naphthyridine-3-carboxylic Acid [Example 18]”, the “Minimum Inhibitory Concentrations H. influenzae HI3542” value in test [1] came to 0.06 µg/mL. Further, in test [2], the “Minimum Inhibitory Concentrations M. catarrhalis BC3534” value was 2 µg/mL. The “Minimum Inhibitory Concentrations E. coli Tol C” value in test [3] (Gram Negative Bacteria, strain Tol C) came out at 16 µg/mL. In addition, the “Minimum Inhibitory Concentrations S pyogenes C203” value in test [4] is 0.06 µg/mL. Further, the “Minimum Inhibitory Concentrations S. aureus UC-76” value in test [5] was determined as 1 µg/mL. Besides, in test [6], the “Minimum Inhibitory Concentrations E. faecalis MGH-2” value was 8 µg/mL.
For the compound `COc1c(N2CCc3ccc(N4C[C@H](CNC(C)=O)OC4=O)cc3CC2)c(F)c(C)c2c(=O)c(C(=O)O)cn(C3CC3)c12` [Example 6, 7-{7-[5-(Acetylamino-methyl)-2-oxo-oxazolidin-3-yl]-1,2,4,5-tetrahydro-benzo[d]azepin-3-yl}-1-cyclopropyl-6-fluoro-8-methoxy-5-methyl-4-oxo-1,4-dihydro-quinoline-3-carboxylic Acid], the MIC in test [1] was 0.06 µg/mL (≈ 0.101 µM); in test [2], 0.13 µg/mL (≈ 0.219 µM); in test [3], 2 µg/mL (≈ 3.37 µM); in test [4], 0.25 µg/mL (≈ 0.422 µM); in test [5], 0.06 µg/mL (≈ 0.101 µM); in test [6], 0.25 µg/mL (≈ 0.422 µM). Further, the “Inhibitory concentration in E. coli cell-free transcription/translation (TnT) assay” value in test [7] was 9.6 µg/mL.
For the compound `CCn1cc(C(=O)O)c(=O)c2cc(F)c(N3CCCc4cc(N5C[C@H](CNC(C)=O)OC5=O)ccc4C3)nc21` [Example 17, 7-{7-[5-(Acetylamino-methyl)-2-oxo-oxazolidin-3-yl]-1,3,4,5-tetrahydro-benzo[c]azepin-2-yl}-1-ethyl-6-fluoro-4-oxo-1,4-dihydro-[1,8]naphthyridine-3-carboxylic Acid], the MIC in test [1] was 0.5 µg/mL (≈ 0.93 µM); in test [2] it was 64 µg/mL (≈ 119 µM); in test [3], 64 µg/mL (≈ 119 µM); in test [4], 64 µg/mL (≈ 119 µM); in test [5], 64 µg/mL (≈ 119 µM); in test [6], 64 µg/mL (≈ 119 µM).
